Several values for one entry are separate records, joined by “and”; a condition that tells them apart may be missing. Equal values may be shown once. Read-outs that look alike come from different tables or passages of the source.
Key:
[1] = test system: Arabidopsis seed germination; format: in vivo
wheat leaves = settings: in vivo
F. graminearum [2] = format: in vivo
F. graminearum [3] = settings: in vivo
F. graminearum [4] = format: in vivo; remark: listed apart in the source
F. graminearum [5] = settings: in vivo; remark: listed apart in the source

Question: How did the “effect on seed germination” value ([1]; FIG. 6) turn out when CC1=C[C@H]2O[C@@H]3[C@H](O)C[C@](C)([C@@]2(CO)[C@H](O)C1=O)[C@]31CO1 [DON, deoxynivalenol] was run?
Answer: inhibits seed germination

Question: And the “cell death about the inoculation point (trypan blue)” value (wheat leaves)?
Answer: extensive cell death

Question: And the “size of lesions (DON-induced cell death)” value (wheat leaves)?
Answer: 0.127 cm^2 and 0.066 cm^2

Question: With C=C1C[C@]23C[C@@]1(O)CC[C@H]2[C@@]12C=C[C@H](O)[C@@](C)(C(=O)O1)[C@H]2[C@@H]3C(=O)O [GA, Gibberellic Acid] as the molecule, how does the “effect on DON inhibition of seed germination” value ([1]; FIG. 7) read?
Answer: can reverse the inhibitory effect of DON

Question: How did the lesion size (F. graminearum [2]; barley (Golden promise) leaves, ethephon 50 mM or silver thiosulphate 150 μm in agar) turn out when C=C [ethylene] was run?
Answer: did not markedly alter

Question: And the conidial production (F. graminearum [2]; barley leaves, 7 days, ET P=0.005, reduced ET perception (silver) P=0.043)?
Answer: significantly greater

Question: And the conidial production (F. graminearum [3])?
Answer: enhanced susceptibility

Question: And the disease severity (F. graminearum [3])?
Answer: enhanced susceptibility

Question: And the lesion size (F. graminearum [4]; wheat (Hobbit 'sib') leaves, ethephon 50 mM or silver thiosulphate 150 μm in agar)?
Answer: did not markedly alter

Question: What about the conidial production (F. graminearum [4]; wheat leaves, 7 days, ET P=0.05, reduced ET perception (silver) P=0.003) of the same molecule?
Answer: significantly greater

Question: Which conidial production (F. graminearum [2]; in vivo) does the source give for silver ions here?
Answer: significantly reduced

Question: What about the lesion size (F. graminearum [2]; in vivo) of the same molecule?
Answer: did not markedly alter

Question: What about the conidial production (F. graminearum [4]; in vivo) of the same molecule?
Answer: significantly reduced

Question: What about the lesion size (F. graminearum [4]; in vivo) of the same molecule?
Answer: did not markedly alter

Question: And the “AUDPC versus water treated heads” value (F. graminearum [5])?
Answer: significantly lower

Question: What about the “disease development reduced versus water” value (F. graminearum [5]) of the same molecule?
Answer: 12-88%

Question: Which conidial production (F. graminearum [3]) does the source give for silver thiosulphate here?
Answer: enhanced resistance

Question: What about the disease severity (F. graminearum [3]) of the same molecule?
Answer: enhanced resistance
